Earlier results as cited in US6963011B2, “N-(2-phenyl-3-aminopropyl)naphthamides” (Astrazeneca AB, priority 2000, dated 2005).
Like-named read-outs stand apart in the source and are kept apart here. Non-standard residues stand in square brackets, D forms with d. Residues, ends and D or L forms follow the SMILES beside them. *: point of attachment. Cyclohexanecarbonyl = O=C(C1CCCCC1)*

How the values were obtained:
[1] = not given; remark: listed apart in the source
[2] = Vassout et al., Neuropeptides 26/S1:38, 1994; only at 30 mg/kg bid
[3] = not given; remark: listed apart in the source
[4] = Walsh et al., Psychopharmacology 121:186-191, 1995
[5] = Vassout et al., Neuropeptides 26/S1:38, 1994
[6] = Teixeira et al., Eur J Pharmacol 311(1):7-14, 1996
[7] = Walsh et al., Psychopharmacology 121:186-191, 1995
[8] = Stratton et al., Eur. J. Pharmacol. 250:R11-12, 1993

Row | SMILES | Outcome, Elevated plus-maze [6] | Outcome, Light-dark box [3, 7] | Outcome, Marmoset human intruder [4] | Outcome, Light-dark box [3, 8] | also measured
1 | Cc1cc(C)cc(C(=O)N2CC[C@H](NCc3ccnc4ccccc34)C[C@H]2Cc2ccccc2)c1 [CGP 49823] |  |  |  |  | Outcome, Elevated plus-maze [5]: inactive; Outcome, Social interaction ([1]; File, Pharm Bio B 58(3):747-752, 1997): anxiolytic; Outcome, Social interaction test [1, 5]: anxiolytic; Outcome, Forced swim test (depression model) [2]: antidepressant
2 | CN(Cc1ccccc1)C(=O)[C@H](Cc1ccc2ccccc2c1)NC(=O)[C@@H]1C[C@@H](O)CN1C(=O)c1cn(C)c2ccccc12 [FK888] | anxiolytic |  |  |  | 
3 | COC1(C[S@@+]([O-])c2ccccc2)CCN(CCc2c[nH]c3ccc(F)cc23)CC1 [GR159897] |  | anxiolytic | anxiolytic |  | 
4 | C[C@H](NC(=O)CNC(=O)C1CCCCC1)C(=O)N[C@H](Cc1c[nH]c2ccccc12)C(=O)N[C@@H](Cc1ccccc1)C(=O)N(C)C [GR100679] (Cyclohexanecarbonyl-GA[dW]F-NMe2) |  |  |  | anxiolytic | 
5 | CC(=O)NC1(c2ccccc2)CCN(CC[C@H](CN(C)C(=O)c2ccccc2)c2ccc(Cl)c(Cl)c2)CC1 [SR48968] | anxiolytic | anxiolytic | anxiolytic | anxiolytic | 
